Source: ChEMBL document CHEMBL6109167, “Novel PARP7 Inhibitors for Treating Cancer” (ACS Med Chem Lett, 2025)

Target: T1, Protein mono-ADP-ribosyltransferase TIPARP (Homo sapiens, UniProt Q7Z3E1)
T1 sequence (Q7Z3E1 whole entry): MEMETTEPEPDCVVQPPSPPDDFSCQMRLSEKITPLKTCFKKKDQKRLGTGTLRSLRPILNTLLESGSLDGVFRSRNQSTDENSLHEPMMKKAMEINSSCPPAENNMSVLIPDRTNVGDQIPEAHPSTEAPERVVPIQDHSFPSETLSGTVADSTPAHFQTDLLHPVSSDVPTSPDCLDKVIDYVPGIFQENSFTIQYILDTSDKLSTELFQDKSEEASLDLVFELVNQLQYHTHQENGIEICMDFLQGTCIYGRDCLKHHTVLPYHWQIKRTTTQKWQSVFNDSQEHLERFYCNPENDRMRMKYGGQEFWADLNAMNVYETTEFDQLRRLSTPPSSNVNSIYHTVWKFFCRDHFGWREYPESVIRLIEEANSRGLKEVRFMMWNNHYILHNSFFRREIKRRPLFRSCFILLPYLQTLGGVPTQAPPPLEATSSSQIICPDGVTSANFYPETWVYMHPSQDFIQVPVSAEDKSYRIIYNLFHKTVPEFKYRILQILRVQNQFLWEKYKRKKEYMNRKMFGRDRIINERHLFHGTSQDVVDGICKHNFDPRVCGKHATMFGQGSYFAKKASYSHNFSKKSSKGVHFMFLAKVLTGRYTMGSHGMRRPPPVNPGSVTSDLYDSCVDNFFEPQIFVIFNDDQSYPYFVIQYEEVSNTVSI
Experiment: Inhibition of PARP7 in human NCI-H1373 cells assessed as increase in STAT1 phosphorylation at Tyr701 incubated for 48 hrs by LANCE Ultra sandwich assay
Type: cell-based

Compound: COc1cnc(-c2cc3ccn(C[C@H](F)C[C@H](C)Oc4cn[nH]c(=O)c4C(F)(F)F)c(=O)c3c(F)c2F)nc1
- EC50: 0.375 nM

Compound: C[C@@H](C[C@@H](F)Cn1ccc2cc(-c3ncc(Cl)cn3)c(F)c(F)c2c1=O)Oc1cn[nH]c(=O)c1C(F)(F)F
- EC50: 0.62 nM

Compound: C[C@@H](C[C@H](F)Cn1cc(F)c2cc(-c3ncc(C(F)F)c(N)n3)c(F)cc2c1=O)Oc1cn[nH]c(=O)c1C(F)(F)F
- EC50: 0.42 nM

Compound: C[C@@H](C[C@@H](F)Cn1ccc2cc(-c3ncc(C(F)F)cn3)c(F)c(F)c2c1=O)Oc1cn[nH]c(=O)c1C(F)(F)F
- EC50: 0.46 nM

Compound: C[C@@H](C[C@H](F)Cn1ccc2cc(-c3ncc(C(F)F)c(N)n3)c(F)cc2c1=O)Oc1cn[nH]c(=O)c1C(F)(F)F
- EC50: 0.786 nM

Compound: C[C@@H](C[C@@H](F)Cn1ccc2cc(-c3ncc(C(C)(F)F)cn3)c(F)c(F)c2c1=O)Oc1cn[nH]c(=O)c1C(F)(F)F
- EC50: 0.667 nM
